# Measurements published in PubChem BioAssay AID2060894 (Molecular Pharmacology Branch, DTP, NCI, 2025).
# Test system: K12877-001-R-J1-PDC complex spheroid viability
# Experiment: Anticancer human tumor K12877-001-R-J1-PDC patient-derived lung adenocarcinoma cell line growth inhibition [RAS]
# Conditions: for IC50: curve of first compound; for viability, T/C: stronger effect = lower value
# From the text: RAS pathway inhibitors in Combinations in Complex Spheroids
# A high-throughput screen of multi-cell type tumor spheroids was designed to identify active combinations of RAS pathway inhibitors and targeted small molecules. Complex spheroids include a stromal component modeled by human endothelial cells (HUVEC) and fibroblasts modeled by human mesenchymal stem cells (MSCs). The concentration ranges selected for each drug and investigational agent were based upon clinically achievable concentrations if the clinical Cmax of the agent was known.
# Compounds. The drugs and investigational agents: abemaciclib (NSC768073), cobimetinib (NSC768068), divarasib (GDC6063, NSC841802), docetaxel (NSC628503), GDC-1971 (RLY-1971, NSC841576), gemcitabine (NSC613327), inavolisib (NSC800729), ipatasertib (NSC767898), KB-0742 (NSC834161), MRTX-1133 (NSC836407), osimertinib (NSC779217), RMC-4630 (NSC839698), RMC-6236 (NSC851965), RMC-6291 (NSC852671), Ro-3306 (NSC812927), sapanisertib (NSC764658), SN-38 (NSC673596), staurosporine (NSC755774), SY5609 (NSC837396), and tovorafenib (DAY101, NSC766906), were obtained from the National Cancer Institute (NCI) Developmental Therapeutics Program Chemical Repository. The FDA-approved anticancer drug set is available from the NCI Developmental Therapeutics Program. […] The stock solutions were prepared in dimethyl sulfoxide (DMSO, Sigma-Aldrich, St. Louis, MO, cat. D2650) at 800-fold the tested concentration and stored at -70 degrees C prior to their use. All drugs and investigational agents were tested over a range starting from a high concentration at or near the clinical Cmax and decreasing in half-log increments. If the clinical Cmax for an agent had not been determined, the highest concentration tested was 10 microM.
# Cell Culture. All cells were maintained in an incubator at 37 degrees C and 5% CO2 with 95% humidity. The PDC lines were cultured according to standard operating procedures established by the NCI PDMR. All PDCs were thawed and cultured in Matrigel-coated flasks prepared with a working solution of 1X Ham's F-12 nutrient mix, without supplementation (Invitrogen, Waltham, MA, cat. 11765054), 100 U/mL penicillin-streptomycin (Invitrogen, cat. 15140122), and 2.5% Matrigel (Corning Inc., Corning, NY, cat. 354248) for the first three passages. The 362531-283-R-J2-PDC and 782815-120-R-J1-PDC lines were cultured in 6C/Colon 1B media, which includes advanced DMEM/F-12 (Thermo Fisher Scientific, cat. 12634028), 10 mM HEPES (Thermo Fisher Scientific, cat. 15630080), 1X GlutaMAX supplement (Thermo Fisher Scientific, cat. 35050061), 0.1 mg/mL primocin (InvivoGen, San Diego, CA, cat. ant-pm-2), 10% defined fetal bovine serum, heat inactivated (HyClone Laboratories Inc., Logan, UT, cat. SH30070.03HI), 50% L-WRN conditioned media (ATCC, cat. CRL-3276), 1.25 mM N-Acetyl-L-cysteine (Sigma-Aldrich, cat. A9165), 10 mM nicotinamide (Sigma-Aldrich, cat. N0636), 1X B-27 supplement (Thermo Fisher Scientific, cat. 17504044), 1X N-2 supplement (Thermo Fisher Scientific, cat. 17502048), 50 ng/mL human EGF (Thermo Fisher Scientific, cat. PHG0311), and 10 microM Y-27632 dihydrochloride (Tocris Bioscience, cat. 1254). The K12877-001-R-J1-PDC line was cultured in 6I media, which includes all 6C/Colon 1B media plus 10 ng/mL human FGF-10 (PeproTech, cat. 100-26), 1 ng/mL human FGF-2 (PeproTech, cat. 100-18B), 1 µM prostaglandin E2 (Tocris Bioscience, cat. 2296), […] hydrocortisone (Sigma-Aldrich, cat. H4001), and […] bovine insulin (Sigma-Aldrich, cat. I6634). The K86415-001-R-J1-PDC line was cultured in 6D media, which includes all 6C/Colon 1B media components minus the L-WRN conditioned media. The 485176-168-R4-J1-PDC was cultured in PANC media, which includes all 6C/Colon 1B media plus 100 ng/mL human FGF-10 (PeproTech, cat. 100-26), 500 nM SB-431542 (Selleckchem, cat. S1067), and 10 nM gastrin (Tocris Bioscience, cat. 3006). […]
# 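Further: spheroids exposed to agents for one week before readout.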
smiles,measurement,setting,value
CCC(CC)c1cc(NC2CCC(N)C2)n2nccc2n1 (configuration not stated) + CCn1c(-c2cccnc2C(C)OC)c2c3cc(ccc31)N1CCOC(CC(NC(=O)C(C(C)C)N(C)C(=O)C3(F)CCN(C(=O)C#CC(C)(C)N(C)C)CC3)C(=O)N3CCCC(N3)C(=O)OCC(C)(C)C2)C1,IC50,second compound 0.000949 µM,1300 nM
same,IC50,second compound 0.003 µM,1020 nM
same,IC50,second compound 0.00949 µM,877 nM
same,IC50,second compound 0.03 µM,903 nM
same,IC50,second compound 0.0949 µM,808 nM
same,IC50,second compound 0.3 µM,508 nM
same,"viability, T/C","second compound 0.000949 µM, first compound 0.0316 µM",78.9%
same,"viability, T/C","second compound 0.000949 µM, first compound 0.1 µM",83.2%
same,"viability, T/C","second compound 0.000949 µM, first compound 0.316 µM",80.2%
same,"viability, T/C","second compound 0.000949 µM, first compound 1 µM",64.3%
same,"viability, T/C","second compound 0.000949 µM, first compound 3.16 µM",1.95%
same,"viability, T/C","second compound 0.000949 µM, first compound 10 µM",0.98%
same,"viability, T/C","second compound 0.003 µM, first compound 0.0316 µM",72%
same,"viability, T/C","second compound 0.003 µM, first compound 0.1 µM",85.8%
same,"viability, T/C","second compound 0.003 µM, first compound 0.316 µM",72.8%
same,"viability, T/C","second compound 0.003 µM, first compound 1 µM",51%
same,"viability, T/C","second compound 0.003 µM, first compound 3.16 µM",1.27%
same,"viability, T/C","second compound 0.003 µM, first compound 10 µM",1.35%
same,"viability, T/C","second compound 0.00949 µM, first compound 0.0316 µM",85.2%
same,"viability, T/C","second compound 0.00949 µM, first compound 0.1 µM",70.9%
same,"viability, T/C","second compound 0.00949 µM, first compound 0.316 µM",69.5%
same,"viability, T/C","second compound 0.00949 µM, first compound 1 µM",48%
same,"viability, T/C","second compound 0.00949 µM, first compound 3.16 µM",1.95%
same,"viability, T/C","second compound 0.00949 µM, first compound 10 µM",0.75%
same,"viability, T/C","second compound 0.03 µM, first compound 0.0316 µM",74%
same,"viability, T/C","second compound 0.03 µM, first compound 0.1 µM",70.5%
same,"viability, T/C","second compound 0.03 µM, first compound 0.316 µM",69.2%
same,"viability, T/C","second compound 0.03 µM, first compound 1 µM",48%
same,"viability, T/C","second compound 0.03 µM, first compound 3.16 µM",1.63%
same,"viability, T/C","second compound 0.03 µM, first compound 10 µM",1.21%
same,"viability, T/C","second compound 0.0949 µM, first compound 0.0316 µM",83.6%
same,"viability, T/C","second compound 0.0949 µM, first compound 0.1 µM",70.2%
same,"viability, T/C","second compound 0.0949 µM, first compound 0.316 µM",75%
same,"viability, T/C","second compound 0.0949 µM, first compound 1 µM",44.2%
same,"viability, T/C","second compound 0.0949 µM, first compound 3.16 µM",1.61%
same,"viability, T/C","second compound 0.0949 µM, first compound 10 µM",1.11%
same,"viability, T/C","second compound 0.3 µM, first compound 0.0316 µM",76.8%
same,"viability, T/C","second compound 0.3 µM, first compound 0.1 µM",69.9%
same,"viability, T/C","second compound 0.3 µM, first compound 0.316 µM",61.7%
same,"viability, T/C","second compound 0.3 µM, first compound 1 µM",33.5%
same,"viability, T/C","second compound 0.3 µM, first compound 3.16 µM",1.98%
same,"viability, T/C","second compound 0.3 µM, first compound 10 µM",0.91%
